Laboratory results taken from patent US20240247015A1, “PHOSPHORUS DERIVATIVES AS NOVEL SOS1 INHIBITORS” (BAYER AKTIENGESELLSCHAFT, priority 2021, published 2024).

These compounds were tested against interaction of human SOS1 (SOS1) with human K-RasG12C (Homo sapiens (Human), UniProt Q07889) (assay: Biochemical assay: hK-RasG12C interaction assay with hSOS1 (HTRF)). Details: GST-hK-RasG12C with His-hSOS1, 60 min incubation at 20° C., mean, read-out: K-RasG12C - SOS interaction assay IC50 (mean).
interaction of human SOS1 (SOS1) with human K-RasG12C, sequence (Q07889 564-1049 limits assumed): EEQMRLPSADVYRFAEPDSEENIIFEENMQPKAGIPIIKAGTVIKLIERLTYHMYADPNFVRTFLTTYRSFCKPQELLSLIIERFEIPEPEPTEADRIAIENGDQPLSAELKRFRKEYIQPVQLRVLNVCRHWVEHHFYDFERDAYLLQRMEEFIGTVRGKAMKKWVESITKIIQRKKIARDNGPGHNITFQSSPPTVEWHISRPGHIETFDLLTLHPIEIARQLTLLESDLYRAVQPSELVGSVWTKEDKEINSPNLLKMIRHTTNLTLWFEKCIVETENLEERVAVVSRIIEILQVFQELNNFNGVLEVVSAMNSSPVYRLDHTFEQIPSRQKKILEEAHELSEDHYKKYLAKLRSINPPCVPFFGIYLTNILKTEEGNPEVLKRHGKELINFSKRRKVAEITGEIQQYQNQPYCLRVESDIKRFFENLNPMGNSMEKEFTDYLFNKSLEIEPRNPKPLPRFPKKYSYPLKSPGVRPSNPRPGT
Format: binding
Outline: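 Compounds, duplicates at 11 concentrations from 0.073 nM to 20 µM, were preincubated 2 min with 10 nM GST-hK-RasG12C, then 20 nM His-hSOS1 was added, all at 20 °C. After 60 min, 665/620 nm HTRF ratio normalized to DMSO and SOS1-free controls; IC50 by 4-parameter fit.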

Row | SMILES | IC50 [nM]
1 | Cc1nc(N[C@H](C)c2cccc(C(F)F)c2F)c2cc(P3(=O)CCN(C(=O)C4(F)CC4)CC3)ncc2n1 [Example 151, 4-[4-{{(1R)-1-[3-(difluoromethyl)-2-fluorophenyl]ethyl}amino)-2-methylpyrido[3,4-d]pyrimidin-6-yl]-1-(1-fluorocyclopropane-1-carbonyl)-1,4lambda^5-azaphosphinan-4-one] | 12.2
2 | COc1nc2nc(C)nc(N[C@H](C)c3cccc(C(F)(F)F)c3C)c2cc1P(C)(C)=O [Example 101, 6-(dimethylphosphoryl)-7-methoxy-2-methyl-N-{(1R)-1-[2-methyl-3-(trifluoromethyl)phenyl]ethyl}pyrido[2,3-d]pyrimidin-4-amine] | 17.5
3 | CC(=O)NCC(F)(F)c1cccc([C@@H](C)Nc2nc(C)nc3cnc(P4(=O)CCN(C(C)=O)CC4)cc23)c1F [Example 199] | 4.61
4 | CO[C@@H](C)C(=O)N1CCP(=O)(c2cc3c(N[C@H](C)c4cccc(C(F)F)c4F)nc(C)nc3cn2)CC1 [Example 149, 4-[4-{{(1R)-1-[3-(difluoromethyl)-2-fluorophenyl]ethyl}amino)-2-methylpyrido[3,4-d]pyrimidin-6-yl]-1-[(2S)-2-methoxypropanoyl]-1,4lambda^5-azaphosphinan-4-one] | 18
5 | Cc1nc(N[C@H](C)c2cccc(C(F)(F)CO)c2F)c2cc(P(C)(=O)C(C)C)ncc2n1 (single isomer, unassigned) [Example 135] | 17
6 | CCOC(=O)N1CCP(=O)(c2cc3c(N[C@H](C)c4cccc(C(F)(F)F)c4C)nc(C)nc3cn2)CC1 [Example 189] | 20.6
7 | Cc1nc(N[C@H](C)c2cccc(C(F)(F)C(C)(C)O)c2F)c2cc(P3(=O)CCN(Cc4ccccc4)CC3)ncc2n1 [Example 54, 1-benzyl-4-[4-({(1R)-1-[3-(1,1-difluoro-2-hydroxy-2-methylpropyl)-2-fluorophenyl]ethyl}amino)-2-methylpyrido[3,4-d]pyrimidin-6-yl]-1,4lambda^5-azaphosphinan-4-one] | 22.5
8 | Cc1nc(N[C@H](C)c2cccc(C(F)(F)C(C)(C)O)c2F)c2cc(P3(=O)CCN(C(=O)C4CC4)CC3)ncc2n1 [Example 172, 1-(cyclopropanecarbonyl)-4-[4-{{(1R)-1-[3-(1,1-difluoro-2-hydroxy-2-methylpropyl)-2-fluorophenyl]ethyl}amino)-2-methylpyrido[3,4-d]pyrimidin-6-yl]-1,4lambda^5-azaphosphinan-4-one] | 4.78
9 | Cc1nc(N[C@H](C)c2cccc(C(F)(F)C(C)O)c2F)c2cc(P(C)(=O)C(C)C)ncc2n1 (single isomer, unassigned) [Example 79, (2R*)-1,1-difluoro-1-{2-fluoro-3-[(1R)-1-({2-methyl-6-[methyl(propan-2-yl)phosphoryl]pyrido[3,4-d]pyrimidin-4-yl}amino)ethyl]phenyl}propan-2-ol] | 12.3
10 | CC(=O)N1CCP(=O)(c2cc3c(N[C@H](C)c4cccc(C(F)(F)F)c4C)nc(C)nc3c(C(F)F)n2)CC1 [Example 36, 1-acetyl-4-[8-(difluoromethyl)-2-methyl-4-({(1R)-1-[2-methyl-3-(trifluoromethyl)phenyl]ethyl}amino)pyrido[3,4-d]pyrimidin-6-yl]-1,4lambda^5-azaphosphinan-4-one] | 16.7
11 | Cc1nc(N[C@H](C)c2cccc(C(F)F)c2F)c2cc(P(C)(C)=O)c(C)nc2n1 [Example 18, N-{(1R)-1-[3-(difluoromethyl)-2-fluorophenyl]ethyl}-6-(dimethylphosphoryl)-2,7-dimethylpyrido[2,3-d]pyrimidin-4-amine] | 27.7
12 | Cc1nc(N[C@H](C)c2cccc(C(F)(F)C(C)(C)O)c2F)c2cc(P(C)(C)=O)nc(O)c2n1 [Example 26, 4-({(1R)-1-[3-(1,1-difluoro-2-hydroxy-2-methylpropyl)-2-fluorophenyl]ethyl}amino)-6-(dimethylphosphoryl)-2-methylpyrido[3,4-d]pyrimidin-8-ol] | 9.18
13 | CC(=O)N1CCP(=O)(c2cc3c(N[C@H](C)c4cccc(C(F)(F)F)c4C)nc(C)nc3c(O)n2)CC1 [Example 30, 1-acetyl-4-[8-hydroxy-2-methyl-4-({(1R)-1-[2-methyl-3-(trifluoromethyl)phenyl]ethyl}amino)pyrido[3,4-d]pyrimidin-6-yl]-1,4lambda^5-azaphosphinan-4-one] | 1360
14 | Cc1nc(N[C@H](C)c2cccc(C(F)(F)F)c2C)c2cc(P3(=O)CCN(C(=O)C4(C#N)CC4)CC3)ncc2n1 [Example 167, 1-{4-[2-methyl-4-{{(1R)-1-[2-methyl-3-(trifluoromethyl)phenyl]ethyl}amino)pyrido[3,4-d]pyrimidin-6-yl]-4-oxo-1,4lambda^5-azaphosphinane-1-carbonyl}cyclopropane-1-carbonitrile] | 12.7
15 | Cc1nc(N[C@H](C)c2cccc(C(F)F)c2F)c2cc(P3(=O)CCN(C(=O)C4CC(F)(F)C4)CC3)ncc2n1 [Example 160, 1-(3,3-difluorocyclobutane-1-carbonyl)-4-[4-({(1R)-1-[3-(difluoromethyl)-2-fluorophenyl]ethyl}amino)-2-methylpyrido[3,4-d]pyrimidin-6-yl]-1,4lambda^5-azaphosphinan-4-one] | 7.87
16 | Cc1nc(N[C@H](C)c2cccc(C(F)(F)C(C)(C)O)c2F)c2cc(P(C)(C)=O)c(C)nc2n1 [Example 19, 1-{3-[(1R)-1-{[6-(dimethylphosphoryl)-2,7-dimethylpyrido[2,3-d]pyrimidin-4-yl]amino}ethyl]-2-fluorophenyl}-1,1-difluoro-2-methylpropan-2-ol] | 14.3
17 | CC(=O)N1CCP(=O)(c2cc3c(N[C@H](C)c4cccc(C(F)(F)F)c4C)nc(C)nc3cn2)CC1 [Example 7, 1-acetyl-4-[2-methyl-4-({(1R)-1-[2-methyl-3-(trifluoromethyl)phenyl]ethyl}amino)pyrido[3,4-d]pyrimidin-6-yl]-1,4lambda^5-azaphosphinan-4-one] | 6.24
18 | Cc1nc(N[C@H](C)c2cccc(C(F)(F)F)c2C)c2cc(P3(=O)CCN(C(=O)C4CC4)CC3)ncc2n1 [Example 174, 1-(cyclopropanecarbonyl)-4-[2-methyl-4-({(1R)-1-[2-methyl-3-(trifluoromethyl)phenyl]ethyl}amino)pyrido[3,4-d]pyrimidin-6-yl]-1,4lambda^5-azaphosphinan-4-one] | 3.89
